Reference: PMC10227015, “From a drug repositioning to a structure-based drug design approach to tackle acute lymphoblastic leukemia” (Nature Communications, 2023)
“Also recorded” adds a separate entry of the source. Like-named read-outs stand apart in the source and are kept apart here.

Assays:
[1] = Acute in vivo toxicity, unique IP injection; details: male, mouse, in vivo; Swiss mice, IP, unique injection; read-out: Maximum tolerated dose
Description: (§1) To evaluate the in vivo toxicity selected compounds were injected by intraperitoneal (IP) route to 7 weeks-old male Swiss mice (n = 2) at 10, 20, 40, 50, or 80 mg/kg by unique injection. […] Compounds were administered in their hydrochloride salt forms. Mice were then observed closely for the next one hour, then every hour for 8 h. Observations were continued for 72 h for signs of pain or toxicity such as change in the behavior and in the activity in the cage (decreased locomotion) or change in the appearance (curved back, eyes half-closed, bristle hair, hips hollowed out). In vivo toxicity of compound OR0642 at 40 and 80 mg/kg was also assessed in the NOD-SCID-IL2Rγc null (NSG) mice model for 2 weeks in the presence and absence of dT to confirm the safety of the compound. […]. Blood samples were collected and spun at 10,000 × g prior to collecting the plasma supernatants. All plasma samples were frozen at −80 °C before sample processing. 13 μl of each plasma sample was mixed with 33 μl of acetonitrile to precipitate proteins and extract the compound. Samples were vortexed for 5 min and then placed in an ultrasonic bath for 1 min. The precipitated proteins were sedimented by centrifugation (15,000 × g, 5 min, 16 °C). Supernatants were transferred to a microplate to be analyzed by LC–MS/MS. All samples were analyzed with a UHPLC coupled to a Shimadzu LC-MS 8030 triple quadrupole. The solutions of a standard range, prepared with plasma from untreated mice, were analyzed in the same series of injections.

dCK-C3S-S74E = experiment: Enzymatic assay (PK/LDH coupled), dC phosphorylation by dCK in the presence of ATP; assay type: biochemical, human
Method in brief: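 Continuous PK/LDH-coupled readout tracked NADH fluorescence loss at 460 nm while 1 mM ATP and 100 µM dC were turned over by 100 nM (or 50 nM) dCK-C3S-S74E in HEPES pH 7.5 buffer with MgCl2, DTT and KCl. Linear-range slopes normalized to no-compound control; IC50 fitted by nonlinear regression across compound concentrations.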

[2] = Plasma pharmacokinetics after IP administration; assay type: in vivo; details: male, Swiss, mouse, mice
Description: as §1

CCRF-CEM cell line = experiment: CCRF-CEM proliferation, compound alone (nonspecific toxicity); assay type: cell-based, human; details: for nonspecific cellular toxicity: CCRF-CEM, absence of dT + dC; for Cell proliferation of the CCRF-CEM cell line Mean (% prolif): 72 h
Description: The dCK cellular assay was set up to assess the ability to inhibit dCK activity in a cellular model. The model was developed with a T-cell acute lymphoblastic leukemia cell line (CCRF-CEM), because of its high dependence on the SP, thus on dCK activity. Cellular assays were performed to assess the inhibition of cell proliferation under two conditions: (i) in the presence of the compound alone to determine the nonspecific effect on cells, independent of dCK (nonspecific toxicity) and (ii) in the presence of an inhibitor of the DNP to determine the ability of compounds to inhibit dCK and decrease tumor proliferation (activity on dCK). The inhibitor of the DNP chosen for the experiments was thymidine (dT), a physiological inhibitor of ribonucleotide reductase which arrests cell proliferation in phase S. The dTTP produced via thymidine kinase from dT acts as a RNR inhibitor by an allosteric regulation of the R1 subunit. The addition of the nucleoside deoxycytidine (dC) in the medium allows the rescue of cell proliferation by passing only through the salvage pathway, mediated by dCK. dC needs to be added exogenously to mimic physiological concentrations because it is not present in the cell culture medium, on the contrary to mouse model, in which it is naturally present in the serum. Therefore, cell proliferation under these conditions (+dT +dC) is dCK dependent and it is possible to determine the IC50 of dCK inhibitors on the inhibition of cell proliferation. Results are expressed as % cell proliferation relative to the control with DMSO.
The amount of reduced dye formed by metabolically active cells was quantified by its fluorescence measured at 560 nm (excitation) and 590 nm (emission) in a microplate reader (CLARIOstar, BMG Labtech). A blank well without cells was used as a background control. Each experiment was performed at least three times (with technical triplicates) and data are presented as the mean ± SD.

[3] = presence of ATP, [dCK] = 50 nM (footnote A), read-out: ENZYMATIC ASSAY IC50
[4] = dose 40 mg/Kg, read-out: T ½ (converted)
[5] = presence of ATP, [dCK] = 100 nM, read-out: ENZYMATIC ASSAY IC50

Sequence of dCK-C3S-S74E (P27707 whole entry S74E, form open): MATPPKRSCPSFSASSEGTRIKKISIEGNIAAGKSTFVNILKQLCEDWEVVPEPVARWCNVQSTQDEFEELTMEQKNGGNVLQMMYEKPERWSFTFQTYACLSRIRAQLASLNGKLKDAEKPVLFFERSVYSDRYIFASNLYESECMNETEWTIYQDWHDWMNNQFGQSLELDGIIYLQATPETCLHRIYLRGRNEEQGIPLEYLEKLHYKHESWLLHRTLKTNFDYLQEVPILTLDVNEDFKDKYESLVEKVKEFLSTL

Row | Enzymatic activity (ATP) Mean (% activity) (dCK-C3S-S74E; 0.16 µM) | Enzymatic activity (ATP) Mean (% activity) (dCK-C3S-S74E; 0.31 µM) | Enzymatic activity (ATP) Mean (% activity) (dCK-C3S-S74E; 0.63 µM) | Enzymatic activity (ATP) Mean (% activity) (dCK-C3S-S74E; 1.25 µM) | Enzymatic activity (ATP) Mean (% activity) (dCK-C3S-S74E; 2.5 µM) | Enzymatic activity (ATP) Mean (% activity) (dCK-C3S-S74E; 5 µM) | Enzymatic activity (ATP) Mean (% activity) (dCK-C3S-S74E; 10 µM) | Enzymatic activity (ATP) Mean (% activity) (dCK-C3S-S74E; 20 µM) | Enzymatic activity (ATP) Mean (% activity) (dCK-C3S-S74E; 40 µM) | IC50 (dCK-C3S-S74E; [5]) | SMILES | MTD at 72 h [1] | Enzymatic activity (ATP) Mean (% activity) (dCK-C3S-S74E; 0.02 µM) | Enzymatic activity (ATP) Mean (% activity) (dCK-C3S-S74E; 0.04 µM) | Enzymatic activity (ATP) Mean (% activity) (dCK-C3S-S74E; 0.08 µM) | other results
1 |  |  |  |  |  |  |  |  |  |  | Cc1cn([C@H]2C[C@H](O)[C@@H](CO)O2)c(=O)[nH]c1=O [dT, thymidine] |  |  |  |  | Cell proliferation of the CCRF-CEM cell line Mean (% prolif) (CCRF-CEM cell line; dT 111 µM alone): 33.2%
2 | 97.2% | 85.8% | 62.1% | 35.4% | 16.5% | 3.9% | 3.9% | 2.6% | 5.2% | 903 ± 37 nM | Cc1ccc(NC(=O)c2ccc(CN3CCN(C)CC3)cc2)cc1Nc1nc(-c2nc(N)cc(N)n2)cs1 [dCKi2, N-(3-((4-(4,6-diaminopyrimidin-2-yl)thiazol-2-yl)amino)-4-methylphenyl)-4-((4-methylpiperazin-1-yl)methyl)benzamide] |  |  |  |  | Cell proliferation of the CCRF-CEM cell line Mean (% prolif) (CCRF-CEM cell line; compound 10 µM alone): 78.4%
3 | 87.3% | 73.6% | 56.4% | 34.0% | 19.3% | 12.3% | 11.6% | 8.1% | 4.4% | 826 ± 78 nM | Cc1ccc(-c2ccc(CCN3CCN(C)CC3)cc2)cc1Nc1nc(-c2nccc(N)n2)cs1 [OR0325] |  |  |  |  | 
4 | 86.8% | 81.3% | 62.9% | 44.6% | 27.8% | 11.8% | 11.9% | 7.8% | 5.0% | 1033 ± 10 nM | Cc1ccc(-c2ccc(CN3CCN(C)CC3)cc2)cc1Nc1nc(-c2nccc(N)n2)cs1 [OR0274] |  |  |  |  | 
5 | 43.5% | 11.4% | 0.0484% | 1.1% | -0.9% | -8.7% | -3.1% |  |  | 121 ± 21 nM | CCCN(c1nc(-c2nc(N)cc(N)n2)cs1)c1cc(-c2ccc(CCN3CCN(C)CC3)cc2)ccc1C [OR0600] |  |  | 92.1% | 78.6% | 
6 | 85.5% | 56.9% | 22.9% | 5.3% | -9.9% | -2.1% | -7.8% |  |  | 315 ± 50 nM | CCCN(c1nc(-c2nccc(N)n2)cs1)c1cc(-c2ccc(CCN3CCN(C)CC3)cc2)ccc1C [OR0345] |  |  | 96.0% | 95.1% | 
7 | 93.7% | 94.8% | 91.7% | 77.3% | 51.8% | 30.3% | 11.5% | 3.9% | 3.1% | 2660 ± 608 nM | Cc1ccc(NC(=O)c2ccc(CN3CCN(C)CC3)cc2)cc1Nc1nc(-c2nccc(N)n2)cs1 [dCKi1] |  |  |  |  | Cell proliferation of the CCRF-CEM cell line Mean (% prolif) (CCRF-CEM cell line; compound 10 µM alone): 76.3%

Row | SMILES | Enzymatic activity (ATP) Mean (% activity) (dCK-C3S-S74E; 0.16 µM) | Enzymatic activity (ATP) Mean (% activity) (dCK-C3S-S74E; 0.31 µM) | Enzymatic activity (ATP) Mean (% activity) (dCK-C3S-S74E; 0.63 µM) | Enzymatic activity (ATP) Mean (% activity) (dCK-C3S-S74E; 1.25 µM) | Enzymatic activity (ATP) Mean (% activity) (dCK-C3S-S74E; 2.5 µM) | Enzymatic activity (ATP) Mean (% activity) (dCK-C3S-S74E; 5 µM) | Enzymatic activity (ATP) Mean (% activity) (dCK-C3S-S74E; 10 µM) | Enzymatic activity (ATP) Mean (% activity) (dCK-C3S-S74E; 20 µM) | Enzymatic activity (ATP) Mean (% activity) (dCK-C3S-S74E; 40 µM) | IC50 (dCK-C3S-S74E; [5]) | MTD at 72 h [1] | Enzymatic activity (ATP) Mean (% activity) (dCK-C3S-S74E; 0.02 µM) | Enzymatic activity (ATP) Mean (% activity) (dCK-C3S-S74E; 0.04 µM) | Enzymatic activity (ATP) Mean (% activity) (dCK-C3S-S74E; 0.08 µM) | other results
8 | CCCN(c1nc(-c2nc(N)cc(N)n2)cs1)c1cc(-c2ccc(S(=O)(=O)N3CCN(C)CC3)c(OC)c2)ccc1C [OR0635] | 15.4% | 4.7% | 4.6% | 2.0% | 1.6% |  |  |  |  |  | > 40 mg/kg | 74.5% | 82.4% | 61.6% | Enzymatic activity (ATP) Mean (% activity) (dCK-C3S-S74E; 0.01 µM): 71.4%; IC50 (dCK-C3S-S74E; [3]): 66 ± 11 nM; Cmax ([2]; dose 40 mg/Kg): 2000 ± 200 nM; Tmax ([2]; dose 40 mg/Kg): 1.5 h; half-life [2, 4]: 373 ± 203 min; half-life ([2]; read-out: half-life): > 300 min
9 | CCCN(c1nc(-c2nc(N)cc(N)n2)cs1)c1cc(-c2ccc(S(=O)(=O)N3CCN(C)CC3)cc2C(F)(F)F)ccc1C [OR0642] | 43.5% | 8.3% | 4.2% | 2.4% | -0.5% |  |  |  |  |  | > 80 mg/kg | 80.5% | 65.5% | 63.0% | nonspecific cellular toxicity (CCRF-CEM cell line): lack of non-specific toxicity; also recorded: absence of nonspecific toxicity; Enzymatic activity (ATP) Mean (% activity) (dCK-C3S-S74E; 0.01 µM): 79.2%; IC50 (dCK-C3S-S74E; [3]): 106 ± 30 nM; Cmax ([2]; dose 20 mg/Kg): 800 ± 200 nM; Tmax ([2]; dose 20 mg/Kg): 2 h; half-life ([2]; dose 20 mg/Kg, read-out: T ½ (converted)): 420 ± 180 min; Cmax ([2]; dose 40 mg/Kg): 4100 ± 1500 nM; Tmax ([2]; dose 40 mg/Kg): 5 h; half-life [2, 4]: > 480 min; half-life ([2]; read-out: half-life): > 420 min
10 | CCCN(c1nc(-c2nc(N)cc(N)n2)cs1)c1cc(-c2ccc(CCN3CCN(C)CC3)nc2)ccc1C [OR0602] | 23.6% | 0.751% | 4.3% | 6.6% | 6.1% | 4.8% |  |  |  |  | 10 mg/kg | 88.7% | 81.1% | 60.0% | nonspecific cellular toxicity (CCRF-CEM cell line): without an increase in nonspecific cellular toxicity; IC50 (dCK-C3S-S74E; ATP, technical limit of the assay, read-out: enzymatic inhibition IC50): 77 nM; Cmax ([2]; dose 10 mg/Kg): 960 ± 40 nM; Tmax ([2]; dose 10 mg/Kg): 1 h; half-life ([2]; dose 10 mg/Kg, read-out: T ½ (converted)): 120 ± 14 min
